Data reported in PubChem BioAssay AID280 (DTP/NCI, 2004).
Where “and” joins values, the source holds several entries; their conditions need not be identical. Equal values may be shown once. Inconclusive results and toxic doses are left out. How the source made its calls: active means survival T/C of 150% or more; inactive means T/C below 125% in these data.

Tested on: nude mice, LOX melanoma ip, survival T/C
Test: NCI In Vivo Anticancer Drug Screen. Data for tumor model Human Amelanotic Melanoma (LOX) (intraperitoneal) in NU/NU BALB/C (nude) mice
Details: endpoint: median survival time, schedule: Q04DX003 (ip), higher = longer survival
Experimental: The antitumor activity of compounds was measured in mice bearing transplantable tumors. Survival or tumor size were measured and the results are expressed as the measurement made in the treated group (T) divided by the measurement made in the vehicle treated control group (C). The tumor model used in this assay is Human Amelanotic Melanoma (LOX) (intraperitoneal) in NU/NU BALB/C (nude) mice

[1] = dose: 75.0 mg/kg/injection, vehicle: saline with Tween-80
[2] = dose: 150.0 mg/kg/injection, vehicle: saline with Tween-80
[3] = dose: 300.0 mg/kg/injection, vehicle: saline with Tween-80

Measured: T/C

O=[N+]([O-])c1ccc([I+]c2ccccc2)cc1
inactive: dose: 9.38 mg/kg/injection, vehicle: Klucel (hydroxypropylcellulose) (HPC) 121 % of control | dose: 16.2 mg/kg/injection, vehicle: Klucel (hydroxypropylcellulose) (HPC) 115 % of control | dose: 27.0 mg/kg/injection, vehicle: Klucel (hydroxypropylcellulose) (HPC) 114 % of control and 101 % of control | dose: 37.5 mg/kg/injection, vehicle: Klucel (hydroxypropylcellulose) (HPC) 108 % of control | dose: 45.0 mg/kg/injection, vehicle: Klucel (hydroxypropylcellulose) (HPC) 105 % of control and 120 % of control | dose: 75.0 mg/kg/injection, vehicle: Klucel (hydroxypropylcellulose) (HPC) 93 % of control

O=C(NNC(=O)c1cccc(C(=O)NNC(=O)c2ccc(Cl)c(Cl)c2)n1)c1ccc(Cl)c(Cl)c1
inactive: dose: 25.0 mg/kg/injection, vehicle: saline with Tween-80 103 % of control | dose: 50.0 mg/kg/injection, vehicle: saline with Tween-80 119 % of control | [1] 104 % of control | dose: 100.0 mg/kg/injection, vehicle: saline with Tween-80 119 % of control | [2] 110 % of control | dose: 200.0 mg/kg/injection, vehicle: saline with Tween-80 122 % of control | dose: 400.0 mg/kg/injection, vehicle: saline with Tween-80 116 % of control
active: [3] 204 % of control | dose: 600.0 mg/kg/injection, vehicle: saline with Tween-80 167 % of control | dose: 1200.0 mg/kg/injection, vehicle: saline with Tween-80 164 % of control

COC12[C@@H]3N[C@@H]3CN1C1=C(C(=O)C(NCCSSCCNC3=C(C)C(=O)C4=C(C3=O)C(COC(N)=O)[C@]3(OC)C5N[C@@H]5CN43)=C(C)C1=O)[C@@H]2COC(N)=O (some centres not stated)
active: dose: 12.5 mg/kg/injection, vehicle: DMSO 331 % of control
inactive: dose: 1.57 mg/kg/injection, vehicle: DMSO 121 % of control

O=C1c2c(O)ccc(O)c2C(=O)c2c(NCCNCCO)ccc(NCCNCCO)c21
inactive: dose: 2.08 mg/kg/injection, vehicle: other 88 % of control | dose: 2.5 mg/kg/injection, vehicle: water 120 % of control
active: dose: 0.45 mg/kg/injection, vehicle: other 168 % of control and 167 % of control | dose: 0.75 mg/kg/injection, vehicle: other 375 % of control and 187 % of control | dose: 1.25 mg/kg/injection, vehicle: other 256 % of control and 265 % of control | dose: 1.25 mg/kg/injection, vehicle: water 218 % of control | dose: 2.0 mg/kg/injection, vehicle: other 187 % of control

O=C(CCCCCCC(=O)ON1C(=O)CCC1=O)ON1C(=O)CCC1=O
inactive: [1] 117 % of control | [2] 101 % of control | [3] 98 % of control

CC[C@@H](C)[C@H]([C@H](CC(=O)N1CCC[C@@H]1[C@@H](OC)[C@H](C)C(=O)N[C@H](Cc1ccccc1)c1nccs1)OC)N(C)C(=O)[C@H](NC(=O)[C@@H](C(C)C)N(C)C)C(C)C
inactive: dose: 3.0 micrograms/kg/injection, vehicle: saline + alcohol 109 % of control | dose: 6.0 micrograms/kg/injection, vehicle: saline + alcohol 113 % of control | dose: 9.0 micrograms/kg/injection, vehicle: saline + alcohol 115 % of control
active: dose: 3.25 micrograms/kg/injection, vehicle: saline + alcohol 170 % of control | dose: 6.5 micrograms/kg/injection, vehicle: saline + alcohol 206 % of control | dose: 13.0 micrograms/kg/injection, vehicle: saline + alcohol 301 % of control | dose: 15.0 micrograms/kg/injection, vehicle: saline + alcohol 192 % of control | dose: 26.0 micrograms/kg/injection, vehicle: saline + alcohol 181 % of control and 301 % of control | dose: 43.0 micrograms/kg/injection, vehicle: saline + alcohol 340 % of control
